In PubChem BioAssay (NCI):
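Growth conditions: 96-well plates. Treatment: test compound, 48 hours, 5 concentrations. Analysis: linear interpolation between bracketing concentrations; unreached endpoints set to highest concentration. The concentration for 50% growth inhibition is given as GI50. At the TGI there is no net growth.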

How the values were obtained:
Experiment in all cases: growth of human tumour cells (NCI), 48 h
U251 CNS = test system: U251 CNS
SN12C renal = test system: SN12C renal
DMS 273 small cell lung = test system: DMS 273 small cell lung
SK-MEL-2 melanoma = test system: SK-MEL-2 melanoma
MALME-3M melanoma = test system: MALME-3M melanoma
HOP-92 NSCLC = test system: HOP-92 NSCLC
OVCAR-8 ovarian = test system: OVCAR-8 ovarian
KM20L2 colon = test system: KM20L2 colon
UO-31 renal = test system: UO-31 renal
NCI/ADR-RES ovarian = test system: NCI/ADR-RES ovarian

SMILES	TGI (U251 CNS)	TGI (SN12C renal)	TGI (DMS 273 small cell lung)	TGI (SK-MEL-2 melanoma)	TGI (MALME-3M melanoma)	TGI (HOP-92 NSCLC)	TGI (OVCAR-8 ovarian)	TGI (KM20L2 colon)	TGI (UO-31 renal)	GI50 (U251 CNS)	GI50 (SN12C renal)	GI50 (DMS 273 small cell lung)	GI50 (SK-MEL-2 melanoma)	GI50 (MALME-3M melanoma)	GI50 (HOP-92 NSCLC)	GI50 (OVCAR-8 ovarian)	GI50 (KM20L2 colon)	GI50 (UO-31 renal)	TGI (NCI/ADR-RES ovarian)	GI50 (NCI/ADR-RES ovarian)
CSC(C1c2ccccc2N(c2ccc(C)cc2)C2=NC(=O)N(C)C(=O)C21Cl)S(=O)(=O)c1ccc(C)cc1 (configuration not stated)	38.9 µM	58.5 µM	47.9 µM	38.9 µM	32.6 µM	27.9 µM	> 100 µM	48.4 µM	69.9 µM	–	–	–	–	–	–	–	–	–	–	–
CCC[CH2][Sn]([CH2]CCC)([O]C(=O)c1cccnc1SC)[O]C(=O)c1cccnc1SC	1.84 µM	1.92 µM	2.26 µM	1.39 µM	1.49 µM	1.93 µM	2.78 µM	3.51 µM	2.66 µM	596 nM	620 nM	1070 nM	311 nM	295 nM	602 nM	1300 nM	1700 nM	1360 nM	–	–
CCCCN=C(NC#N)NCCCC	> 100 µM	> 100 µM	> 100 µM	> 100 µM	> 100 µM	> 100 µM	> 100 µM	> 100 µM	> 100 µM	–	–	–	–	–	–	–	–	–	–	–
COC(=O)C1Cc2c(n(Cc3ccccc3)c3ccccc23)C(CCC(=O)O)N1C(C)C (configuration not stated)	> 100 µM	> 100 µM	> 100 µM	> 100 µM	> 100 µM	> 100 µM	> 100 µM	> 100 µM	> 100 µM	–	–	–	–	–	–	–	–	–	–	–
COC12C=C(C)C(CC1)CC2C(=O)O (configuration not stated)	> 100 µM	> 100 µM	> 100 µM	> 100 µM	> 100 µM	> 100 µM	> 100 µM	> 100 µM	> 100 µM	–	–	–	–	–	–	–	–	–	–	–
CC(=O)CNC(=O)OC(C)(C)C	> 100 µM	> 100 µM	> 100 µM	> 100 µM	> 100 µM	> 100 µM	> 100 µM	> 100 µM	> 100 µM	–	–	–	–	–	–	–	–	–	–	–
O=C(/C=C/c1c(O)ccc2ccccc12)c1cccc(O)c1	> 100 µM	> 100 µM	> 100 µM	> 100 µM	> 100 µM	99.5 µM	> 100 µM	> 100 µM	> 100 µM	–	–	–	–	–	–	–	–	–	–	–
CN1CCN(C)C12C=c1ccccc1=CC21CC1	> 82 µM	> 100 µM	> 100 µM	53.7 µM	59 µM	79.5 µM	98 µM	> 58.2 µM	> 100 µM	–	–	–	–	–	–	–	–	–	> 100 µM	–
CC[CH2][Sn]([CH2]CC)([O]C(=O)c1cccnc1SC)[O][Sn]([CH2]CC)([CH2]CC)[O]C(=O)c1cccnc1SC	0.592 µM	1.39 µM	1.69 µM	0.823 µM	0.566 µM	0.829 µM	1.92 µM	2.11 µM	2.14 µM	250 nM	453 nM	367 nM	299 nM	237 nM	342 nM	599 nM	775 nM	844 nM	3.24 µM	1490 nM
